≈ marks a conversion by molar mass, not a printed value. Calls of active or inactive are those of the source. The calls are words filed in the database; no cut-off is given here.
Columns and labels:
Enterococcus faecalis [1] = test: Antibacterial activity against Enterococcus faecalis ATCC 29212 assessed as inhibition of bacterial growth incubated for 16 to 18 hrs by microbroth dilution method; assay type: functional; conditions: time 16-18 hrs, read-out: MIC100
Escherichia coli = test: Antibacterial activity against Escherichia coli ATCC 25922 assessed as inhibition of bacterial growth incubated for 16 to 18 hrs by microbroth dilution method; assay type: functional; conditions: time 16-18 hrs, read-out: MIC100
[2] = Hemolytic activity in sheep RBC assessed as hemolysis incubated for 1 hrs by microplate reader analysis; assay type: toxicity, cell-based, Ovis aries, Erythrocyte; conditions: sheep red blood cells
Staphylococcus aureus [3] = test: Antibacterial activity against Staphylococcus aureus ATCC 29213 assessed as inhibition of bacterial growth incubated for 16 to 18 hrs by microbroth dilution method; assay type: functional; conditions: time 16-18 hrs, read-out: MIC100
[4] = system: Stenotrophomonas maltophilia; test: Antibacterial activity against Stenotrophomonas maltophilia ATCC 17808 assessed as inhibition of bacterial growth incubated for 16 to 18 hrs by microbroth dilution method; assay type: functional; conditions: time 16-18 hrs, read-out: MIC100
[5] = Cytotoxicity against human HeLa cells assessed as cell viability at 64 microg/ml incubated for 24 hrs by CCK8 assay relative to control; assay type: toxicity, cell-based; conditions: at 64 µg/mL, read-out: Activity
Cell membrane = test: Induction of cytoplasmic membrane permeability in Enterococcus faecalis assessed as increase in fluorescence intensity at 8 times of MIC by PI staining based analysis
Enterococcus faecalis [6] = test: Antibacterial activity against Enterococcus faecalis assessed as inhibition of bacterial growth incubated for 3 hrs in presence of 50% plasma by dilution method; assay type: functional
HeLa = test: Cytotoxicity against human HeLa cells assessed as increase in red fluorescence at 32 microg/ml incubated for 24 hrs by calcein-AM/PI staining based fluorescence microscopic analysis; assay type: toxicity, cell-based; conditions: dose 32 µg/ml
[7] = Selectivity ratio of MIC for antibacterial activity against Enterococcus faecalis assessed as inhibition of bacterial growth measured immediately in presence of 50% plasma to MIC for antibacterial activity against Enterococcus faecalis assessed as inhibition of bacterial growth assessed as inhibition of bacterial growth measured after 16 to 18 hrs; assay type: functional
[8] = Selectivity ratio of MIC for antibacterial activity against Enterococcus faecalis assessed as inhibition of bacterial growth measured after 3 hrs in presence of 50% plasma to MIC for antibacterial activity against Enterococcus faecalis assessed as inhibition of bacterial growth assessed as inhibition of bacterial growth measured after 16 to 18 hrs; assay type: functional
Staphylococcus aureus [9] = test: Antibacterial activity against Staphylococcus aureus ATCC 29213 assessed as inhibition of bacterial growth by CLSI protocol based broth liquid microdilution method; assay type: functional
Staphylococcus aureus [10] = test: Antibacterial activity against methicillin-resistant Staphylococcus aureus assessed as inhibition of bacterial growth by CLSI protocol based broth liquid microdilution method; assay type: functional
Enterococcus [11] = test: Antibacterial activity against vancomycin-resistant enterococcus assessed as inhibition of bacterial growth by CLSI protocol based broth liquid microdilution method; assay type: functional
Enterococcus [12] = test: Antibacterial activity against vancomycin-resistant enterococcus; assay type: functional
Streptococcus pneumoniae = test: Antibacterial activity against penicillin-resistant Streptococcus pneumoniae; assay type: functional
Staphylococcus aureus [13] = test: Antibacterial activity against methicillin-sensitive Staphylococcus aureus; assay type: functional
Staphylococcus aureus [14] = test: Antibacterial activity against methicillin-resistant Staphylococcus aureus; assay type: functional

SMILES	MIC (Enterococcus faecalis [1])	MIC (Escherichia coli)	HC50 at 1 h [2]	MIC (Staphylococcus aureus [3])	MIC [4]	other results
CC[N+](C)(C)CC(=O)N1CCN(c2ccc(N3C[C@H](CNC(C)=O)OC3=O)cc2F)CC1.[Br-]	32 µg/mL	> 128 µg/mL	> 1280 µg/mL	64 µg/mL	> 128 µg/mL	–
CC(=O)NC[C@H]1CN(c2ccc(N3CCN(C(=O)C[N+](C)(C)Cc4ccc(C#N)cc4)CC3)c(F)c2)C(=O)O1.[Br-]	32 µg/mL	> 128 µg/mL	> 1280 µg/mL	> 128 µg/mL	> 128 µg/mL	–
CCCCCC[N+](C)(C)CC(=O)N1CCN(c2ccc(N3C[C@H](CNC(C)=O)OC3=O)cc2F)CC1.[Br-]	8 µg/mL	> 128 µg/mL	> 1280 µg/mL	128 µg/mL	> 128 µg/mL	–
CC(=O)NC[C@H]1CN(c2ccc(N3CCN(C(=O)CN(C)Cc4cccc(Br)c4)CC3)c(F)c2)C(=O)O1	4 µg/mL (≈ 6.94 µM)	> 128 µg/mL	> 1280 µg/mL	8 µg/mL (≈ 13.9 µM)	> 128 µg/mL	–
CCCCC[N+](C)(C)CC(=O)N1CCN(c2ccc(N3C[C@H](CNC(C)=O)OC3=O)cc2F)CC1.[Br-]	16 µg/mL	> 128 µg/mL	> 1280 µg/mL	> 128 µg/mL	> 128 µg/mL	–
CC[C@H](C)[C@H](NC(=O)CN)C(=O)NCC(=O)N[C@@H](C)C(=O)N[C@H](C(=O)N[C@@H](CC(C)C)C(=O)N[C@@H](CCCCN)C(=O)N[C@H](C(=O)N[C@@H](CC(C)C)C(=O)N[C@H](C(=O)N[C@H](C(=O)NCC(=O)N[C@@H](CC(C)C)C(=O)N1CCC[C@H]1C(=O)N[C@@H](C)C(=O)N[C@@H](CC(C)C)C(=O)N[C@H](C(=O)N[C@@H](CO)C(=O)N[C@@H](Cc1c[nH]c2ccccc12)C(=O)N[C@H](C(=O)N[C@@H](CCCCN)C(=O)N[C@@H](CCCNC(=N)N)C(=O)N[C@@H](CCCCN)C(=O)N[C@@H](CCCNC(=N)N)C(=O)N[C@@H](CCC(N)=O)C(=O)N[C@@H](CCC(N)=O)C(N)=O)[C@@H](C)CC)[C@@H](C)CC)[C@@H](C)O)[C@@H](C)O)C(C)C)C(C)C [MELITTIN]	–	–	–	–	–	viability at 24 h, 64 microg/ml [5]: 5.2%; Activity (Cell membrane): Active; MIC (Enterococcus faecalis [6]): 32 µg/mL; Activity (HeLa): Toxic; Selectivity ratio [7]: >16; Selectivity ratio [8]: >16
CC(=O)NC[C@H]1CN(c2ccc(N3CCN(C(=O)CN(C)Cc4ccc(C(F)(F)F)cc4)CC3)c(F)c2)C(=O)O1	2 µg/mL (≈ 3.54 µM)	> 128 µg/mL	> 1280 µg/mL	16 µg/mL (≈ 28.3 µM)	> 128 µg/mL	–
CC(=O)NC[C@H]1CN(c2ccc(N3CCN(C(=O)CN(C)Cc4ccccc4)CC3)c(F)c2)C(=O)O1	4 µg/mL (≈ 8.04 µM)	> 128 µg/mL	> 1280 µg/mL	16 µg/mL (≈ 32.2 µM)	> 128 µg/mL	–
C[C@@H](O)[C@H]1C(=O)N2C(C(=O)O)=C(S[C@@H]3CN[C@H](C(=O)N(C)C)C3)[C@H](C)[C@H]12 [MEROPENEM]	–	0.031 µg/mL (≈ 0.0808 µM)	–	–	0.031 µg/mL (≈ 0.0808 µM)	–
COc1cccc(CN(C)CC(=O)N2CCN(c3ccc(N4C[C@H](CNC(C)=O)OC4=O)cc3F)CC2)c1	2 µg/mL (≈ 3.79 µM)	> 128 µg/mL	> 1280 µg/mL	16 µg/mL (≈ 30.3 µM)	> 128 µg/mL	–
CC(=O)NC[C@H]1CN(c2ccc(N3CCN(/N=C\c4ccc([N+](=O)[O-])o4)CC3)c(F)c2)C(=O)O1	–	–	–	–	–	MIC (Staphylococcus aureus [9]): 0.25 µg/mL (≈ 0.527 µM); MIC (Staphylococcus aureus [10]): 1 µg/mL (≈ 2.11 µM); MIC (Enterococcus [11]): 1 µg/mL (≈ 2.11 µM)
CN[C@H](CC(C)C)C(=O)N[C@H]1C(=O)N[C@@H](CC(N)=O)C(=O)N[C@H]2C(=O)N[C@H]3C(=O)N[C@H](C(=O)N[C@H](C(=O)O)c4cc(O)cc(O)c4-c4cc3ccc4O)[C@H](O)c3ccc(c(Cl)c3)Oc3cc2cc(c3O[C@@H]2O[C@H](CO)[C@@H](O)[C@H](O)[C@H]2O[C@H]2C[C@](C)(N)[C@H](O)[C@H](C)O2)Oc2ccc(cc2Cl)[C@H]1O [VANCOMYCIN]	1 µg/mL (≈ 0.69 µM)	–	–	–	–	–
CC(=O)NC[C@H]1CN(c2ccc(N3CCN(C(=O)CN(C)Cc4cccc(Cl)c4)CC3)c(F)c2)C(=O)O1	2 µg/mL (≈ 3.76 µM)	> 128 µg/mL	> 1280 µg/mL	8 µg/mL (≈ 15 µM)	> 128 µg/mL	–
CCC[N+](C)(C)CC(=O)N1CCN(c2ccc(N3C[C@H](CNC(C)=O)OC3=O)cc2F)CC1.[Br-]	64 µg/mL	> 128 µg/mL	> 1280 µg/mL	64 µg/mL	> 128 µg/mL	–
CC(=O)NC[C@H]1CN(c2ccc(N3CCN(C(=O)CN(C)Cc4ccc(C)cc4)CC3)c(F)c2)C(=O)O1	2 µg/mL (≈ 3.91 µM)	> 128 µg/mL	> 1280 µg/mL	16 µg/mL (≈ 31.3 µM)	> 128 µg/mL	–
Br.CC(=O)NC[C@H]1CN(c2ccc(N3CCN(C(=O)C[N+](C)(C)Cc4ccc([N+](=O)[O-])cc4)CC3)c(F)c2)C(=O)O1	128 µg/mL	> 128 µg/mL	> 1280 µg/mL	128 µg/mL	> 128 µg/mL	–
CC(=O)NC[C@H]1CN(c2ccc(N3CCN(C(=O)C[N+](C)(C)Cc4ccc(C(F)(F)F)cc4)CC3)c(F)c2)C(=O)O1.[Br-]	128 µg/mL	> 128 µg/mL	> 1280 µg/mL	128 µg/mL	> 128 µg/mL	–
COc1ccccc1CN(C)CC(=O)N1CCN(c2ccc(N3C[C@H](CNC(C)=O)OC3=O)cc2F)CC1	2 µg/mL (≈ 3.79 µM)	> 128 µg/mL	> 1280 µg/mL	16 µg/mL (≈ 30.3 µM)	> 128 µg/mL	–
CC(=O)NC[C@H]1CN(c2ccc(N3CCN(C(=O)CN(C)Cc4cccc(C)c4)CC3)c(F)c2)C(=O)O1	4 µg/mL (≈ 7.82 µM)	> 128 µg/mL	> 1280 µg/mL	16 µg/mL (≈ 31.3 µM)	> 128 µg/mL	–
CC(=O)NC[C@H]1CN(c2ccc(N3CCN(Cc4ccc([N+](=O)[O-])o4)CC3)c(F)c2)C(=O)O1 [RANBEZOLID]	–	–	–	–	–	MIC (Enterococcus [12]): 0.06 µg/mL (≈ 0.13 µM); MIC (Streptococcus pneumoniae): 0.06 µg/mL (≈ 0.13 µM); MIC (Staphylococcus aureus [13]): 0.06 µg/mL (≈ 0.13 µM); MIC (Staphylococcus aureus [14]): 0.06 µg/mL (≈ 0.13 µM)
CC(=O)NC[C@H]1CN(c2ccc(N3CCN(C(=O)C[N+](C)(C)Cc4ccccc4)CC3)c(F)c2)C(=O)O1.[Br-]	4 µg/mL	> 128 µg/mL	> 1280 µg/mL	128 µg/mL	> 128 µg/mL	–
CC(=O)NC[C@H]1CN(c2ccc(N3CCN(C(=O)CN(C)Cc4cccc([N+](=O)[O-])c4)CC3)c(F)c2)C(=O)O1	2 µg/mL (≈ 3.69 µM)	> 128 µg/mL	> 1280 µg/mL	8 µg/mL (≈ 14.7 µM)	> 128 µg/mL	–
CC(=O)NC[C@H]1CN(c2ccc(N3CCN(C(=O)CN(C)Cc4ccc(Cl)cc4)CC3)c(F)c2)C(=O)O1	2 µg/mL (≈ 3.76 µM)	> 128 µg/mL	> 1280 µg/mL	16 µg/mL (≈ 30.1 µM)	> 128 µg/mL	–
COc1ccc(CN(C)CC(=O)N2CCN(c3ccc(N4C[C@H](CNC(C)=O)OC4=O)cc3F)CC2)cc1	2 µg/mL (≈ 3.79 µM)	> 128 µg/mL	> 1280 µg/mL	16 µg/mL (≈ 30.3 µM)	> 128 µg/mL	–
CC(=O)NC[C@H]1CN(c2ccc(N3CCN(C(=O)CN(C)Cc4cccc(C#N)c4)CC3)c(F)c2)C(=O)O1	4 µg/mL (≈ 7.65 µM)	> 128 µg/mL	> 1280 µg/mL	8 µg/mL (≈ 15.3 µM)	> 128 µg/mL	–
